Our source for the IC50 values is BindingDB's records for patent US9446044 (DIAXONHIT, 2016).

The test addresses Dual specificity tyrosine-phosphorylation-regulated kinase 1A (Homo sapiens, UniProt Q13627). Description: HotSpot Technology Assay. Particulars: pH 7.5; 25 °C.
With `COc1ccc(Nc2ncnc3ccc4nc(C(=N)N(C)C)sc4c23)cc1` [US9446044, 28], 500 nM corresponded to half-maximal inhibition (IC50). The result for `NC(=O)c1nc2ccc3ncnc(Nc4ccc5c(c4)OCO5)c3c2s1` [US9446044, 39] reads 500 nM; that for `COC(=O)c1nc2ccc3ncnc(Nc4ccc5c(c4)OCO5)c3c2s1` [US9446044, 84], 500 nM.
